Source: paper PMC11571207, “Stereorandomized Oncocins with Preserved Ribosome Binding and Antibacterial Activity” (Journal of Medicinal Chemistry, 2024)
≈ marks a conversion by molar mass, not a printed value. Where two headings read alike, the source gives them in different places.

Experiments:
E. cloacae = assay: microbe, parasite or virus in culture; details: Enterobacter cloacae
Protocol: (§1) Minimum inhibitory concentration assay
(§2) Antimicrobial activity was assayed against P. aeruginosa PAO1, K. pneumoniae NCTC418, E. coli W3110, A. baumannii ATCC 19606, methicillin-resistant S. aureus COL (MRSA), and for selected peptides on P. aeruginosa PA14 and the polymyxin-B-resistant derivative PA14 2P4, as well as the clinical isolates ZEM-1A and ZEM9A, K. pneumoniae OXA-48, S. aureus Newman, Enterobacter cloacae and Burkholderia cenocepacia. The minimal inhibitory concentration (MIC) was determined by using broth microdilution method. A colo ny of bacteria was picked and grown in Luria-Bertani (LB) medium overnight at 37°C. For E. coli BW25113 sbmA::kan the medium was supplemented with 25 mg/L of kanamycin. The next day, the culture was then regrown in LB medium to log phase (OD600 = 0.6 to 0.8), which lasted approximately 4 h, and diluted to an OD600 of 0.022 in the desired medium. Stock solutions of 1 mg/mL of the samples were prepared in sterilized milliQ water and diluted to the beginning concentration of 64 μg/mL in 300 μL Mueller Hinton (MH)-medium. The diluted samples were added to first well of 96-well microtiter plate (TPP, untreated, Faust Laborbedarf, AG, Schaffhausen) and diluted serially by ½. Finally, 4 μL of the bacterial suspension was inoculated into the sample solutions (150 μL/well) with a final inoculation of about 5∙10^5 CFU/mL. The plates were then incubated at 37°C for 15-18h. For each assay, sterility (broth only) and growth control (broth with bacterial inoculum, without antibiotics) were checked with two columns in the plate. The next day, 15 μL of 3-(4,5-dimethylthiazol-2-yl)-2,5-diphenyltetrazolium bromide (MTT) was added to each well of the plate, such a way that MIC was defined as the lowest concentration of the peptide that inhibited visible growth of the tested

K. pneumoniae OXA-48 = assay: microbe, parasite or virus in culture; details: Klebsiella pneumoniae
Protocol: as §1, §2

[1] = test system: P. aeruginosa PA14 2P4 (pmrB); assay: microbe, parasite or virus in culture; details: Pseudomonas aeruginosa
Protocol: as §1, §2

P. aeruginosa PA14 = assay: microbe, parasite or virus in culture; details: for MIC: Pseudomonas aeruginosa
Protocol: as §1, §2

P. aeruginosa ZEM-1A = assay: microbe, parasite or virus in culture; details: Pseudomonas aeruginosa, ZEM1A
Protocol: as §1, §2

P. aeruginosa ZEM9A = assay: microbe, parasite or virus in culture; details: Pseudomonas aeruginosa, ZEM9A
Protocol: as §1, §2

[2] = test system: P. aeruginosa PA14 4.18 (pmrB); details: supplement CSV; full MH pH 7.4

Q: For CC[C@H]1OC(=O)[C@H](C)[C@@H](O[C@H]2C[C@@](C)(OC)[C@@H](O)[C@H](C)O2)[C@H](C)[C@@H](O[C@@H]2O[C@H](C)C[C@H](N(C)C)[C@H]2O)[C@](C)(O)C[C@@H](C)CN(C)[C@H](C)[C@@H](O)[C@]1(C)O [AZM, azithromycin, reference compound], which MIC (E. cloacae; pH 7.4, read-out: MIC E. cloacae, 12.5% MHB, 12.5% MHB pH 7.4, 16–20 h at 37 °C) is on record?
A: Its MIC is 8 µg/mL (≈ 10.7 µM).

Q: And the MIC (E. cloacae; pH 7.4, read-out: MIC E. cloacae, full MHB, full MHB pH 7.4, 16–20 h at 37 °C)?
A: Its MIC is 16 µg/mL (≈ 21.4 µM).

Q: What about the MIC (E. cloacae; pH 7.4, read-out: MIC E. cloacae, supplement CSV, 12.5% MH pH 7.4) of the same compound?
A: Its MIC is 8 µg/mL (≈ 10.7 µM).

Q: What about the MIC (E. cloacae; pH 7.4, read-out: MIC E. cloacae, supplement CSV, full MH pH 7.4) of the same compound?
A: The MIC was 16 µg/mL (≈ 21.4 µM).

Q: What about the MIC (K. pneumoniae OXA-48; OXA48, pH 7.4, read-out: MIC K. pneumoniae OXA-48, 12.5% MHB, carbapenem-resistant, 12.5% MHB pH 7.4, 16–20 h at 37 °C) of the same compound?
A: The MIC was 8 µg/mL (≈ 10.7 µM).

Q: What about the MIC (K. pneumoniae OXA-48; OXA48, pH 7.4, read-out: MIC K. pneumoniae OXA-48, full MHB, carbapenem-resistant, full MHB pH 7.4, 16–20 h at 37 °C) of the same compound?
A: The MIC was 8 to 16 µg/mL (≈ 10.7 to 21.4 µM).

Q: What about the MIC (K. pneumoniae OXA-48; OXA48, pH 7.4, read-out: MIC K. pneumoniae OXA-48, supplement CSV, 12.5% MH pH 7.4) of the same compound?
A: Its MIC is 8 µg/mL (≈ 10.7 µM).

Q: What about the MIC (K. pneumoniae OXA-48; OXA48, pH 7.4, read-out: MIC K. pneumoniae OXA-48, supplement CSV, full MH pH 7.4) of the same compound?
A: The MIC was 8 to 16 µg/mL (≈ 10.7 to 21.4 µM).

Q: What about the MIC ([1]; PA14, pH 7.4, read-out: MIC P. aeruginosa PA14 2P4 (pmrB), 12.5% MHB, polymyxin B resistant strain, 12.5% MHB pH 7.4, 16–20 h at 37 °C) of the same compound?
A: The MIC was 16 µg/mL (≈ 21.4 µM).

Q: What about the MIC ([1]; PA14, pH 7.4, read-out: MIC P. aeruginosa PA14 2P4 (pmrB), full MHB, polymyxin B resistant strain, full MHB pH 7.4, 16–20 h at 37 °C) of the same compound?
A: Its MIC is 32 to 64 µg/mL (≈ 42.7 to 85.4 µM).

Q: What about the MIC ([1]; PA14, pH 7.4, read-out: MIC P. aeruginosa PA14 2P4, supplement CSV, 12.5% MH pH 7.4) of the same compound?
A: The MIC was 16 µg/mL (≈ 21.4 µM).

Q: And the MIC ([1]; PA14, pH 7.4, read-out: MIC P. aeruginosa PA14 2P4, supplement CSV, full MH pH 7.4)?
A: Its MIC is 32 to 64 µg/mL (≈ 42.7 to 85.4 µM).

Q: And the MIC (P. aeruginosa PA14; PA14, pH 7.4, read-out: MIC P. aeruginosa PA14)?
A: The MIC was 32 µg/mL (≈ 42.7 µM).

Q: And the MIC (P. aeruginosa PA14; PA14, pH 7.4, read-out: MIC P. aeruginosa PA14, 12.5% MHB)?
A: Its MIC is 32 µg/mL (≈ 42.7 µM).

Q: And the MIC (P. aeruginosa PA14; PA14, pH 7.4, read-out: MIC P. aeruginosa PA14, full MHB)?
A: Its MIC is 32 µg/mL (≈ 42.7 µM).

Q: And the “MIC P. aeruginosa PA14” value (P. aeruginosa PA14; supplement CSV, full MH pH 7.4)?
A: The value was 32 µg/mL (≈ 42.7 µM).

Q: And the MIC (P. aeruginosa ZEM-1A; pH 7.4, read-out: MIC P. aeruginosa ZEM-1A, 12.5% MHB, clinical isolate, 12.5% MHB pH 7.4, 16–20 h at 37 °C, cells marked c: single measurement (in duplicates))?
A: Its MIC is < 0.5 µg/mL.

Q: And the MIC (P. aeruginosa ZEM-1A; pH 7.4, read-out: MIC P. aeruginosa ZEM-1A, full MHB, clinical isolate, full MHB pH 7.4, 16–20 h at 37 °C, cells marked c: single measurement (in duplicates))?
A: The MIC was 64 µg/mL (≈ 85.4 µM).

Q: What about the MIC (P. aeruginosa ZEM-1A; pH 7.4, read-out: MIC P. aeruginosa ZEM-1A, supplement CSV, 12.5% MH pH 7.4) of the same compound?
A: Its MIC is < 0.5 µg/mL.

Q: What about the MIC (P. aeruginosa ZEM-1A; pH 7.4, read-out: MIC P. aeruginosa ZEM-1A, supplement CSV, full MH pH 7.4) of the same compound?
A: The MIC was 64 µg/mL (≈ 85.4 µM).

Q: What about the MIC (P. aeruginosa ZEM9A; pH 7.4, read-out: MIC P. aeruginosa ZEM9A, 12.5% MHB, clinical isolate, 12.5% MHB pH 7.4, 16–20 h at 37 °C) of the same compound?
A: Its MIC is 32 to 64 µg/mL (≈ 42.7 to 85.4 µM).

Q: And the MIC (P. aeruginosa ZEM9A; pH 7.4, read-out: MIC P. aeruginosa ZEM9A, full MHB, clinical isolate, full MHB pH 7.4, 16–20 h at 37 °C)?
A: Its MIC is > 64 µg/mL.

Q: What about the MIC (P. aeruginosa ZEM9A; pH 7.4, read-out: MIC P. aeruginosa ZEM9A, supplement CSV, 12.5% MH pH 7.4) of the same compound?
A: Its MIC is 32 to 64 µg/mL (≈ 42.7 to 85.4 µM).

Q: What about the MIC (P. aeruginosa ZEM9A; pH 7.4, read-out: MIC P. aeruginosa ZEM9A, supplement CSV, full MH pH 7.4) of the same compound?
A: The MIC was > 64 µg/mL.

Q: And the “MIC P. aeruginosa PA14 4.18” value [2]?
A: The value was 32 µg/mL (≈ 42.7 µM).
